Key:
[1] = DPPH radical scavenging assay; type: biochemical
How it was run: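 Acylselenoureas at 0.003 and 0.03 mg/mL (final dilutions from DMSO stock, via methanol) mixed with DPPH• prepared at 0.04 mg/mL in methanol. Absorbance decrease at 517 nm followed 0–120 min; % scavenging calculated relative to negative control, triplicates.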

[2] = system: MDA-MB-231 (breast) cancer cell line; assay: MTT cell viability assay, MDA-MB-231; type: cell-based, human; conditions: Homo sapiens, MDA-MB-231, 48 h; for activity at 10 µM: read-out: Cell growth %, MDA-MB-231, 10 µM, 48 h, MTT; for activity at 50 µM: read-out: Cell growth %, MDA-MB-231, 50 µM, 48 h, MTT; for IC50: read-out: IC50 MDA-MB-231
How it was run: (§1)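 MDA-MB-231, HTB-54 and DU-145 grown in RPMI 1640, HT-29 in McCoy's 5A (10% FBS). Output is % cell growth; IC50 determined; ≥3 experiments in quadruplicate.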

[3] = system: DU-145 (prostate) cancer cell line; assay: MTT cell viability assay, DU-145; type: cell-based, human; conditions: Homo sapiens, DU-145, 48 h; for activity at 10 µM: read-out: Cell growth %, DU-145, 10 µM, 48 h, MTT; for activity at 50 µM: read-out: Cell growth %, DU-145, 50 µM, 48 h, MTT; for IC50: read-out: IC50 DU-145
How it was run: as §1

[4] = system: MDA-MB-231, HT-29, HTB-54 and DU-145 cancer cell lines; assay: MTT cell viability assay, statements over the panel of cancer cell lines; type: cell-based, human; conditions: for IC50: Homo sapiens, span over HTB-54, MDA-MB-231 and DU-145; for cell growth: in at least three of the four cancer cell lines tested
How it was run: as §1

DU-145 cells = assay: Total ROS measurement (Muse Oxidative Stress Kit); type: cell-based, human; conditions: DU-145, 16 h; 1.I and 5.I 10 µM, H2O2 0.9 µM
Procedure: Total ROS levels were measured in DU-145 cells treated with 1.I and 5.I using the Muse Oxidative Stress Kit (EMD Millipore, Billerica, MA, USA) according to the manufacturer’s protocol. This kit uses Muse oxidative stress reagent to detect ROS inside cells. This kit identifies two different cell populations: ROS(−) cells and ROS(+) cells. In the graph, the ROS(−) population is represented by the M1 peak and the ROS(+) cells by the M2 peak. DU-145 cells treated with H2O2 (0.9 µM) were used as positive controls to identify M1 and M2 peaks. Percentages of ROS(−) and ROS(+) cells were measured using the Muse Cell Analyzer.

Row | SMILES | inhibition ([1]; 0.003 mg/mL, 0 min) [%] | inhibition ([1]; 0.003 mg/mL, 5 min) [%] | inhibition ([1]; 0.003 mg/mL, 15 min) [%] | inhibition ([1]; 0.003 mg/mL, 30 min) [%] | inhibition ([1]; 0.003 mg/mL, 60 min) [%] | inhibition ([1]; 0.003 mg/mL, 90 min) [%] | inhibition ([1]; 0.003 mg/mL, 120 min) [%] | inhibition ([1]; 0.03 mg/mL, 0 min) [%] | inhibition ([1]; 0.03 mg/mL, 5 min) [%] | inhibition ([1]; 0.03 mg/mL, 15 min) [%] | inhibition ([1]; 0.03 mg/mL, 30 min) [%] | inhibition ([1]; 0.03 mg/mL, 60 min) [%] | inhibition ([1]; 0.03 mg/mL, 90 min) [%] | inhibition ([1]; 0.03 mg/mL, 120 min) [%] | activity at 10 µM [2] [%] | activity at 50 µM [2] [%] | IC50 [2] [µM] | activity at 10 µM [3] [%] | activity at 50 µM [3] [%] | IC50 [3] [µM] | further results
1 | CCCNC(=[Se])NC(=O)c1ccco1 [Compound 1.I, N-(propylcarbamoselenoyl)furan-2-carboxamide] | 0 | 1.1 ± 2 | 3.5 ± 2 | 6.6 ± 2 | 11.7 ± 2.3 | 15.5 ± 2.5 | 17.5 ± 2.3 | 1.8 ± 1.5 | 10.3 ± 4.3 | 29.7 ± 4.1 | 55.4 ± 5.1 | 95.4 ± 4.1 | 96.5 ± 0.7 | 96.4 ± 0.6 | 46.7 ± 5.6 | 38 ± 7.8 | 8.8 ± 4.8 | 44.9 ± 4.8 | 48.7 ± 3.1 | 9.5 ± 2.5 | time to reach the highest DPPH inhibition ([1]; 0.03 mg/mL): 60 min; IC50 [4]: 7.8 to 15.5 µM; cell growth [4]: below 55%
2 | CCCNC(=[Se])NC(=O)c1ccccc1 [Compound 5.I, N-(propylcarbamoselenoyl)benzamide] | 1.7 ± 1.1 | 2.9 ± 1.1 | 4.6 ± 1.2 | 6.4 ± 1.3 | 9.3 ± 1.4 | 11.4 ± 1.5 | 13 ± 1.6 | 3.2 ± 2.4 | 16.6 ± 3.1 | 29.8 ± 3.4 | 46.1 ± 3.9 | 72.6 ± 6.2 | 97.7 ± 0.6 | 96.7 ± 2.5 | 45 ± 12.5 | 21.3 ± 11.2 | 15.5 ± 6.3 | 42.4 ± 4.9 | 47.9 ± 3.9 | 11.5 ± 3.4 | IC50 [4]: 7.8 to 15.5 µM; cell growth [4]: below 55%; ROS PROFILE M2 (ROS(+) cells) (DU-145 cells): ~13%

— article PMC10376326, “Novel Acylselenourea Derivatives: Dual Molecules with Anticancer and Radical Scavenging Activity” (Antioxidants, 2023)
